Paper PMC5451006, “Inhibition of insect olfactory behavior by an airborne antagonist of the insect odorant receptor co-receptor subunit” (PLoS ONE, 2017)

Assays:
Type in all cases: cell-based
[1] = target: T1, Cqui\Orco (Culex quinquefasciatus, UniProt Z9TAD8G4U6); assay: two-electrode voltage clamp, Xenopus oocytes, single concentration; conditions: antagonist vs 30 μM OLC12; homomeric Orco; pH 7.4, -70 mV
T1 construct: homomeric Orco channel, expressed alone in Xenopus laevis oocytes
T1 sequence (Z9TAD8G4U6 1-480): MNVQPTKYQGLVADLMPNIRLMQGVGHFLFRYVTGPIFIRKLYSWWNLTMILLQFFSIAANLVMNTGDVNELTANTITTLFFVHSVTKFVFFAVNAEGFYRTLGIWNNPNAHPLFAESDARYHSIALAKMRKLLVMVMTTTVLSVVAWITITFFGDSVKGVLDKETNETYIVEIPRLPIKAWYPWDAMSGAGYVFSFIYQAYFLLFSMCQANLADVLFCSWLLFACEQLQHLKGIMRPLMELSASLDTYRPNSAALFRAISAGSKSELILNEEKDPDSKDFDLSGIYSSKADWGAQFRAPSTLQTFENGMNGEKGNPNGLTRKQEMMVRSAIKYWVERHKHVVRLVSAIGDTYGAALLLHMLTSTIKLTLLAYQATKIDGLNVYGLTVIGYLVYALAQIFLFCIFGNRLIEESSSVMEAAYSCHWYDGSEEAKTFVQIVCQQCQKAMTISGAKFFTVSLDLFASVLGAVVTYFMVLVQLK
Text: two-electrode voltage clamp, Xenopus oocytes, single concentration on Cqui\Orco | OX1w inhibition of homomeric Orco channels. Oocytes expressing Dmel\Orco, Cqui\Orco or Agam\Orco

[2] = target: T2, Dmel\Orco+Dmel\Or35a (Drosophila melanogaster, UniProt Q9VNB5); assay: two-electrode voltage clamp, Xenopus oocytes, concentration-inhibition
T2 construct: heteromeric OR, cRNAs co-expressed in Xenopus laevis oocytes; stoichiometry unknown; with Odorant receptor 35a
T2 sequence (Q9VNB5 1-486): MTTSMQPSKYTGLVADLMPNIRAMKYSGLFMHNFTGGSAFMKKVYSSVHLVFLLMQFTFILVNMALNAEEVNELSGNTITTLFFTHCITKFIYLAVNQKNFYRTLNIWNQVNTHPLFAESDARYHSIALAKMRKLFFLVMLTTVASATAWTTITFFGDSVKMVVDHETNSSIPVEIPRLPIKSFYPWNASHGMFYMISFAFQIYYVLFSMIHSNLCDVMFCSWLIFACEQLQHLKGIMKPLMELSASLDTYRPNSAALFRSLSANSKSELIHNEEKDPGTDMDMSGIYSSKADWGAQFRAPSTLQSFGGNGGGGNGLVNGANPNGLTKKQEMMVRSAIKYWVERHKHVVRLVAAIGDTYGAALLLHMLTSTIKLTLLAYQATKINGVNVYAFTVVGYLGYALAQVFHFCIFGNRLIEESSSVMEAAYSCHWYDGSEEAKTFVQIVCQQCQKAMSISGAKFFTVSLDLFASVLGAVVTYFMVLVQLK
T2 sequence (Q9V3Q2 1-409 partner): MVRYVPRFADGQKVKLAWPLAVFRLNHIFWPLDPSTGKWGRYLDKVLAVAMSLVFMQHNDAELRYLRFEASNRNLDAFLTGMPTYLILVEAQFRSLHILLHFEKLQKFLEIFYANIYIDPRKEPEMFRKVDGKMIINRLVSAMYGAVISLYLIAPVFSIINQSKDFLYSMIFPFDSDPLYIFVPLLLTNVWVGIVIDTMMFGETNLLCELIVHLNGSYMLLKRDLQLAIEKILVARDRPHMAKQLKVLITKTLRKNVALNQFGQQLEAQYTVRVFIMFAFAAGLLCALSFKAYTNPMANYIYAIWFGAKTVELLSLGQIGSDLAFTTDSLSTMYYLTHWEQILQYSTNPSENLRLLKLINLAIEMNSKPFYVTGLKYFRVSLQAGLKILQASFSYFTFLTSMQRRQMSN

[3] = target: T3, Agam\Orco (Anopheles gambiae, UniProt Q7QCC7); assay: two-electrode voltage clamp, Xenopus oocytes, single concentration; conditions: antagonist vs 30 μM OLC12; homomeric Orco; pH 7.4, -70 mV
T3 construct: homomeric Orco channel, expressed alone in Xenopus laevis oocytes
T3 sequence (Q7QCC7 1-478): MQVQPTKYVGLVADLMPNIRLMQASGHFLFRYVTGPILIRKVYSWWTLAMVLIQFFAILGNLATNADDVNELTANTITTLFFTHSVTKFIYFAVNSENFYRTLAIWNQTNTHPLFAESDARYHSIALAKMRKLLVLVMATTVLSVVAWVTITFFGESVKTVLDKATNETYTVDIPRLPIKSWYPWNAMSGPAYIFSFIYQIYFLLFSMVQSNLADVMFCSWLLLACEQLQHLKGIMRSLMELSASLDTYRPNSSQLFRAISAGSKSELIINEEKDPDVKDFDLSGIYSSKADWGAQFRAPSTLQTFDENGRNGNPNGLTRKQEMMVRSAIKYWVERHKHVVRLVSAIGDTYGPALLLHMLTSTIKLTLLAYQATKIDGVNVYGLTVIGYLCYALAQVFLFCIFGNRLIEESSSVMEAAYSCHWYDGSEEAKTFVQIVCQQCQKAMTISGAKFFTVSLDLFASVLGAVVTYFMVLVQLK
Text: two-electrode voltage clamp, Xenopus oocytes, single concentration on Agam\Orco | OX1w inhibition of homomeric Orco channels. Oocytes expressing Dmel\Orco, Cqui\Orco or Agam\Orco

[4] = target: T4, Agam\Orco+Agam\Or27 (Anopheles gambiae, UniProt Q7QCC7); assay: as above; conditions: antagonist vs 3 μM L-fenchone (EC50 concentration); allosteric via Orco; pH 7.4, -70 mV
T4 construct: heteromeric OR co-expressed in Xenopus laevis oocytes; stoichiometry unknown; with Odorant receptor 27
T4 sequence (Q7QCC7 1-478): T3 sequence (Q7QCC7 1-478)

[5] = target: T5, Cqui\Orco+Cqui\Or21 (Culex quinquefasciatus, UniProt Z9TAD8G4U6); assay: two-electrode voltage clamp, Xenopus oocytes, concentration-inhibition; conditions: antagonist vs 3 μM OLC12 (Orco agonist), -70 mV, pH 7.4, 90 sec pre-application
T5 construct: heteromeric OR, cRNAs from pGEMHE co-expressed in Xenopus laevis oocytes; stoichiometry unknown; with Odorant receptor 21
T5 sequence (Z9TAD8G4U6 1-480): T1 sequence (Z9TAD8G4U6 1-480)

[6] = target: T6, Agam\Orco+Agam\Or15 (Anopheles gambiae, UniProt Q7QCC7); assay: two-electrode voltage clamp, Xenopus oocytes, single concentration; conditions: antagonist vs 18 μM acetophenone (EC50 concentration); allosteric via Orco; pH 7.4, -70 mV
T6 construct: heteromeric OR co-expressed in Xenopus laevis oocytes; stoichiometry unknown; with Odorant receptor 15
T6 sequence (Q7QCC7 1-478): T3 sequence (Q7QCC7 1-478)

[7] = target: T7, Dmel\Orco (Drosophila melanogaster, UniProt Q9VNB5); assay: as above; conditions: antagonist vs 30 μM OLC12; homomeric Orco; pH 7.4, -70 mV
T7 construct: homomeric Orco channel, expressed alone in Xenopus laevis oocytes
T7 sequence (Q9VNB5 1-486): T2 sequence (Q9VNB5 1-486)
Text: two-electrode voltage clamp, Xenopus oocytes, single concentration on Dmel\Orco | OX1w inhibition of homomeric Orco channels. Oocytes expressing Dmel\Orco, Cqui\Orco or Agam\Orco

[8] = target: T8, Agam\Orco+Agam\Or65 (Anopheles gambiae, UniProt Q7QCC7); assay: as above; conditions: antagonist vs 100 nM eugenol (EC50 concentration); allosteric via Orco; pH 7.4, -70 mV
T8 construct: heteromeric OR co-expressed in Xenopus laevis oocytes; stoichiometry unknown; with Odorant receptor 65
T8 sequence (Q7QCC7 1-478): T3 sequence (Q7QCC7 1-478)

[9] = target: T9, Agam\Orco+Agam\Or31 (Anopheles gambiae, UniProt Q7QCC7); assay: as above; conditions: antagonist vs 70 μM geranyl acetate (EC50 concentration); allosteric via Orco; pH 7.4, -70 mV
T9 construct: heteromeric OR co-expressed in Xenopus laevis oocytes; stoichiometry unknown; with Odorant receptor 31
T9 sequence (Q7QCC7 1-478): T3 sequence (Q7QCC7 1-478)

[10] = target: T10, Agam\Orco+Agam\Or39 (Anopheles gambiae, UniProt Q7QCC7); assay: as above; conditions: antagonist vs 10 μM 6-methyl-5-hepten-2-one (EC50 concentration); allosteric via Orco; pH 7.4, -70 mV
T10 construct: heteromeric OR co-expressed in Xenopus laevis oocytes; stoichiometry unknown; with Odorant receptor 39
T10 sequence (Q7QCC7 1-478): T3 sequence (Q7QCC7 1-478)

[11] = target: T11, Agam\Orco+Agam\Or28 (Anopheles gambiae, UniProt Q7QCC7); assay: as above; conditions: antagonist vs 40 μM acetophenone (EC50 concentration); allosteric via Orco; pH 7.4, -70 mV
T11 construct: heteromeric OR co-expressed in Xenopus laevis oocytes; stoichiometry unknown; with Odorant receptor 28
T11 sequence (Q7QCC7 1-478): T3 sequence (Q7QCC7 1-478)

| Compound | % response remaining at 100 μM [1] | IC50 [2] | % response remaining at 100 μM [3] | % response remaining at 100 μM (normalized to sham) [4] | IC50 [5] | % response remaining at 100 μM (normalized to sham) [6] | % response remaining at 100 μM [7] | % response remaining at 100 μM (normalized to sham) [8] | % response remaining at 100 μM (normalized to sham) [9] | % response remaining at 100 μM (normalized to sham) [10] | % response remaining at 100 μM (normalized to sham) [11] |
| --- | --- | --- | --- | --- | --- | --- | --- | --- | --- | --- | --- |
| O=C(Nc1ccc(F)cc1)c1sccc1Cl [OX1w, 3-chloro-N-(4-fluorophenyl)-2-thiophenecarboxamide] | OX1w inhibition of homomeric Orco channels. Oocytes expressing Dmel\Orco, Cqui\Orco or Agam\Orco | 57 ± 5 µM | OX1w inhibition of homomeric Orco channels. Oocytes expressing Dmel\Orco, Cqui\Orco or Agam\Orco | OX1w was able to inhibit odorant activation of each of the tested ORs | 4 ± 1 µM | OX1w was able to inhibit odorant activation of each of the tested ORs | OX1w inhibition of homomeric Orco channels. Oocytes expressing Dmel\Orco, Cqui\Orco or Agam\Orco | 78 ± 5% | OX1w was able to inhibit odorant activation of each of the tested ORs | OX1w was able to inhibit odorant activation of each of the tested ORs | 8 ± 1% |
| O=C(Nc1cc(F)cc(F)c1)c1cccs1 [OX1v, N-(3,5-difluorophenyl)-2-thiophenecarboxamide] | – | 32 ± 4 µM | – | – | 20 ± 3 µM | – | – | – | – | – | – |
| O=C(Nc1ccc(SC(F)F)cc1)c1cccs1 [OX1x, N-(4-((difluoromethyl)thio)phenyl)-2-thiophenecarboxamide] | – | 32 ± 6 µM | – | – | 15 ± 1 µM | – | – | – | – | – | – |
